{"source": "paper PMC3788796", "about": "“The Antimicrobial Domains of Wheat Puroindolines Are Cell-Penetrating Peptides with Possible Intracellular Mechanisms of Action” (PLoS ONE, 2013)", "key": {"S. cerevisiae cells [1]": {"test_system": "S. cerevisiae cells", "assay": "SEM of peptide-treated yeast cells", "format": "cell-based, Saccharomyces cerevisiae", "conditions": "sub-MIC: PuroA and Pina-M 64 µg/mL, Pina-W→F 125 µg/mL; 1 h 30°C", "procedure": "S. cerevisiae cultures were grown overnight in 5.0 mL of PDB 30°C, to OD600 = 1.2–1.8 (∼5×10^7 cells/mL). 75 µL aliquots of the yeast cell suspension were incubated with 25 µL of PuroA, Pina-M, Pina-W→F or PuroB (at final concentrations of 0.5×, 1× or 2× of the respective MIC for S. cerevisiae; see results) for 1 h at 30°C. The cells were collected by centrifugation (1000×g, 5 min), the pellets washed three times in PBS (pH 7.4) and resuspended in 100 µL MilliQ (ultra-pure) water. A 25 µL aliquot of the cell suspension was spotted onto a glass slide, air-dried, then fixed and dehydrated as described previously. In brief, the air-dried slides were fixed in 2.5% glutaraldehyde (in PBS, pH 7.4) overnight in a humid chamber, then washed with PBS pH 7.4 for 10 min, and dehydrated in an ethanol gradient of 50%, 60%, 70%, 80%, 90% and 100%. The slides were freeze-dried overnight and then coated in a Dynavac CS300 coating unit with carbon and gold, with double sided conducting carbon tape attached to the slides for better conductivity. The samples were analysed using a ZEISS supra 10 VP field emission scanning electron microscope (Carl Zeiss Microscopy, NY, USA) at 3.0 kV."}, "[2]": {"assay": "Calcein dye leakage from mammalian-mimicking LUVs", "format": "biochemical", "conditions": "for % Calcein leakage from DOPC LUVs: LUVs 10 µM phospholipid, 10 mM Tris, 100 mM NaCl pH 7.4, 5 min, fluorescence 496/515 nm, no-peptide control 28.0, average of duplicate experiments", "procedure": "(§1) A calcein leakage assay as previously described was performed to determine the effects of PIN-based peptides on the permeability of synthetic large unilamellar vesicles (LUVs), designed to mimic bacterial and mammalian cell membranes. The phospholipids used were DOPC (1,2-dioleoyl-sn-glycero-3-phosphocholine), with zwitterionic head groups and DOPG (1,2-dioleoyl-sn-glycerol-3-[phosphor-rac-(1-glycerol)]), with negatively charged headgroups (Avanti® Polar lipids, Alabaster, USA). These were used to make DOPC:DOPG (1∶3) LUVs to mimic bacterial cell membranes, or DOPC only, to mimic mammalian cell membranes. Calcein-entrapped LUVs were prepared by the extrusion method using an Avanti mini extrusion apparatus (Avanti® Polar Lipids, Alabaster, USA). The DOPC:DOPG (a 1∶3 mixture) or DOPC were dissolved in chloroform (25 mg/mL) and aliquoted into glass test tubes to give a concentration of 2.6 mM when resuspended in 2 mL buffer. Chloroform was evaporated under a stream of N2 and the lipid films were dried overnight under vacuum. The films were then resuspended in 2.0 mL of 70 mM calcein buffer (in 10 mM Tris-HCl, pH 7.4) and incubated at room temperature for 30 minutes. To increase entrapment of the dye, five repeated freeze\\thaw cycles were used by placing the vial in liquid N2 and then a warm water bath (37°C). The lipid mixture was then extruded through the mini-extruder 10 times through two stacked 0.1 µm pore-size filters. Free calcein was removed by centrifugation (10, 000×g, 10 min) three times and washing with 10 mM Tris, 100 mM NaCl buffer (pH 7.4). Standards of phosphorus (inorganic P; Pi) were prepared (0.05–1.5 mg/mL) using KH2PO4 and read at 820 nm and a linear standard curve was generated (Figure S1 in File S1). The phospholipid concentration of the vesicle preparations was determined by a total phosphorus assay. The assay reagent was prepared fresh by mixing 1 part of 1% ascorbic acid with 6 parts of 0.42% ammonium molybdate•4H2O in H2SO4 and stored on ice. 7 µL of it was added to 3 µL of vesicle suspensions and incubated for 20 min at 45°C. […] The standard curve of phosphorus standards (Figure S1 in File S1) was used to determine the Pi concentration in a LUV preparation, and this was converted to phospholipid concentration (Table S1 in File S1) to adjust the preparations to the required 10 µM phospholipid concentration prior to peptide treatment.\n(§2) The calcein-filled LUVs were diluted with 10 mM Tris, 100 mM NaCl buffer (pH 7.4) to a final phospholipid concentration of 10 µM. The experiments were performed in a Varian Cary Eclipse fluorescence spectrophotometer with excitation and emission wavelengths of 496 nm and 515 nm, slit widths of […] and a PMT detector of 600 V. The peptides (PuroA, Pina-M, Pina-W→F and PuroB) were added to LUVs to a final peptide concentration of 8–125 µg/mL in 100 µL volumes and the fluorescence (F) monitored for 5 min at 60 s intervals. The total calcein fluorescence (FT) was determined by addition of 1.0% Triton X100. The dye leakage was calculated as % Leakage = ((F – F0)/(FT – F0)), F0 being fluorescence of each sample at T = 0."}, "S. cerevisiae cells [3]": {"test_system": "S. cerevisiae cells", "assay": "Propidium iodide uptake by yeast cells", "format": "cell-based, Saccharomyces cerevisiae", "conditions": "for % fluorescent cells (propidium iodide uptake): 1 h 30°C in PBS pH 7.4, PI 6 µg/mL 5 min, no-peptide control 5.7, average of 4 fields, two independent experiments", "procedure": "S. cerevisiae was grown overnight at 30°C in 100 mL PDB and the cells collected by centrifugation and resuspended in Phosphate Buffered Saline (PBS: 137 mM NaCl, 2.7 mM KCl, 8 mM Na2HPO4, 1.46 mM KH2PO4; pH 7.4) to ∼1.5×10^7 cells/mL (OD600 = 0.6–0.8). 75 µL of the suspension was incubated with 25 µL of stock solutions of PuroA, Pina-M, Pina-W→F, PuroB and indolicidin (to give a final peptide concentration of 64, 125, 250 or 500 µg/mL), or with PBS (for no-peptide controls) for 1 h at 30°C, followed by staining with propidium iodide (PI) as described. PI stock solution (60 µg/mL) was prepared in MilliQ water and stored in dark at −20°C. It was diluted to 12 µg/mL before use, mixed 1∶1 with peptide-treated or untreated yeast cells (to final PI concentration 6 µg/mL), and the samples incubated in the dark for 5 min. A 10 µL aliquot of these was examined using a Nikon Eclipse 50 i fluorescence microscope with 561 nm excitation and 630/22 emission filter, at 400×magnification. The photomicrographs were taken under light and fluorescence for each field. Five randomly selected fields were recorded and scored for each sample."}, "E. coli cells": {"test_system": "E. coli cells", "conditions": "data from previous work; cited from earlier work"}, "[4]": {"assay": "Calcein dye leakage from bacteria-mimicking LUVs", "format": "biochemical", "conditions": "LUVs 10 µM phospholipid, 10 mM Tris, 100 mM NaCl pH 7.4, 5 min, fluorescence 496/515 nm, no-peptide control 28.5, average of duplicate experiments", "procedure": "as §1, §2"}}, "note": "Several values for one entry are separate records, joined by “and”; a condition that tells them apart may be missing. Equal entries are not always repeated."}
{"substance": "FPVTFRFFKFFKG-NH2 [Pina-W→F, PuroA-based peptide with all Trps substituted with Phe residues]", "values": [{"measurement": "surface morphology of yeast cells (SEM) at sub-MIC level", "setting": "S. cerevisiae cells [1]", "result": "shallow pits or pores on the surface"}, {"measurement": "dye leakage from the DOPC LUVs (in words)", "setting": "[2]; over all tested concentrations, even at high concentration", "result": "no significant leakage"}, {"measurement": "% Calcein leakage from DOPC LUVs", "setting": "[2]; peptide 8 µg/mL", "result": 28.0, "unit": "%"}, {"measurement": "% Calcein leakage from DOPC LUVs", "setting": "[2]; peptide 16 µg/mL", "result": 27.0, "unit": "%"}, {"measurement": "% Calcein leakage from DOPC LUVs", "setting": "[2]; peptide 32 µg/mL", "result": 27.0, "unit": "%"}, {"measurement": "% Calcein leakage from DOPC LUVs", "setting": "[2]; peptide 64 µg/mL", "result": 31.0, "unit": "%"}, {"measurement": "% Calcein leakage from DOPC LUVs", "setting": "[2]; peptide 125 µg/mL (highest for PuroA, Pina-M, Pina-W→F)", "result": 36.0, "unit": "%"}, {"measurement": "% fluorescent cells (propidium iodide uptake)", "setting": "S. cerevisiae cells [3]; peptide 64 µg/mL", "result": 56.5, "unit": "%"}, {"measurement": "% fluorescent cells (propidium iodide uptake)", "setting": "S. cerevisiae cells [3]; peptide 125 µg/mL", "result": 72.3, "unit": "%"}, {"measurement": "% fluorescent cells (propidium iodide uptake)", "setting": "S. cerevisiae cells [3]; peptide 250 µg/mL", "result": 100, "unit": "%"}, {"measurement": "% fluorescent cells (propidium iodide uptake)", "setting": "S. cerevisiae cells [3]; peptide 500 µg/mL", "result": 100, "unit": "%"}, {"measurement": "cells permeable to propidium iodide at sub-MIC levels", "setting": "S. cerevisiae cells [3]; peptide below its MIC against yeast", "result": "56–72%"}, {"measurement": "cells permeable to propidium iodide at MIC levels and higher", "setting": "S. cerevisiae cells [3]; peptide equal to or greater than its MIC for yeast", "result": 100, "unit": "%"}, {"measurement": "MIC against E. coli cells", "setting": "E. coli cells", "result": "32 µg/mL and 32 ± 0 µg/mL"}, {"measurement": "% Calcein leakage from DOPC:DOPG LUVs", "setting": "[4]; peptide 8 µg/mL", "result": 29.2, "unit": "%"}, {"measurement": "% Calcein leakage from DOPC:DOPG LUVs", "setting": "[4]; peptide 16 µg/mL", "result": 32.0, "unit": "%"}, {"measurement": "% Calcein leakage from DOPC:DOPG LUVs", "setting": "[4]; peptide 32 µg/mL", "result": 64, "unit": "%"}, {"measurement": "% Calcein leakage from DOPC:DOPG LUVs", "setting": "[4]; peptide 64 µg/mL", "result": 78.0, "unit": "%"}, {"measurement": "% Calcein leakage from DOPC:DOPG LUVs", "setting": "[4]; peptide 125 µg/mL", "result": 81.0, "unit": "%"}]}
